What was measured:
Assay in all cases: Bliss excess, mean over the matrix (fraction); higher = more synergy
[1] = system: COR-L279 (Small Cell Lung Carcinoma)
In short: (§1)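 Bliss excess equals the observed combination effect minus the expected value EA + EB − EA·EB, where EA and EB are the effects of each agent alone. Combination Emax is the second-highest inhibition within the matrix. Inhibition was scaled from CellTiter-Glo 2.0 luminescence, with 0 set by vehicle wells and 1 by blank wells, after 72 hours of two-drug dosing of cells plated in 1536-well plates.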

[2] = system: CW-2 (Colorectal Carcinoma)
In short: as §1

[3] = system: DMS-114 (Small Cell Lung Carcinoma)
In short: as §1

[4] = system: KU812 (Chronic Myelogenous Leukemia)
In short: as §1

[5] = system: KYSE-270 (Esophageal Squamous Cell Carcinoma)
In short: as §1

M059J (Glioblastoma) = system: M059J (Glioblastoma)
In short: as §1

[6] = system: MN-60 (B-Lymphoblastic Leukemia)
In short: as §1

[7] = system: MOG-G-CCM (Low Grade Glioma)
In short: as §1

[8] = system: NCCIT (Other Solid Carcinomas)
In short: as §1

NCI-H2731 (Mesothelioma) = system: NCI-H2731 (Mesothelioma)
In short: as §1

[9] = system: NCI-H3122 (Lung Adenocarcinoma)
In short: as §1

[10] = system: NCI-H520 (Squamous Cell Lung Carcinoma)
In short: as §1

[11] = system: NCI-H526 (Small Cell Lung Carcinoma)
In short: as §1

[12] = system: NCI-H929 (Plasma Cell Myeloma)
In short: as §1

[13] = system: OCI-AML3 (Acute Myeloid Leukemia)
In short: as §1

SJSA-1 (Osteosarcoma) = system: SJSA-1 (Osteosarcoma)
In short: as §1

[14] = system: SK-GT-4 (Esophageal Adenocarcinoma)
In short: as §1

[15] = system: ST486 (Burkitt's Lymphoma)
In short: as §1

[16] = system: T-T (Esophageal Squamous Cell Carcinoma)
In short: as §1

[17] = system: VMRC-RCZ (Kidney Carcinoma)
In short: as §1

Compound	Bliss excess [1]	Bliss excess [2]	Bliss excess [3]	Bliss excess [4]	Bliss excess [5]	Bliss excess (M059J (Glioblastoma))	Bliss excess [6]	Bliss excess [7]	Bliss excess [8]	Bliss excess (NCI-H2731 (Mesothelioma))	Bliss excess [9]	Bliss excess [10]	Bliss excess [11]	Bliss excess [12]	Bliss excess [13]	Bliss excess (SJSA-1 (Osteosarcoma))	Bliss excess [14]	Bliss excess [15]	Bliss excess [16]	Bliss excess [17]
C=CCn1c(=O)c2cnc(Nc3ccc(N4CCN(C)CC4)cc3)nc2n1-c1cccc(C(C)(C)O)n1 [AZD1775] + CCc1c2c(nc3ccc(O)cc13)-c1cc3c(c(=O)n1C2)COC(=O)[C@]3(O)CC [SN-38] (first compound max 1 µM, partner max 0.3 µM)	-0.0425	-0.0515	-0.0439	-0.0318	0.0029	0.0051	-0.0244	-0.053	-0.0342	-0.0744	-0.0233	-0.0637	-0.0476	-0.0303	-0.103	-0.0742	0.0211	-0.0359	-0.031	-0.0623
C[C@@H](Oc1cc(-c2cnn(C3CCNCC3)c2)cnc1N)c1c(Cl)ccc(F)c1Cl [Crizotinib] + Cn1cnc2c(F)c(Nc3ccc(Br)cc3Cl)c(C(=O)NOCCO)cc21 [Selumetinib] (first compound max 10 µM, 7x7, partner max 10 µM)	-0.0192	-0.0423	-0.0814	-0.0466	0.0039	-0.0562	-0.0797	-0.0423	-0.0503	-0.0382	-0.0479	-0.0779	-0.0142	-0.0421	-0.0401	0.0262	-0.0405	-0.0819	0.0159	-0.0338

— the supplement of paper PMC11061612
